Measurements reported in patent US20230210902A1, “SARS-COV-2-SPECIFIC T CELLS” (priority 2020, published 2023).

System: CTLs from Cas9 control and NR3C1 KO groups
Assay: Annexin V apoptosis assay with dexamethasone
Format: cell-based, human
Details: 200 µM, 72 hours
Procedure: Annexin V apoptosis assay was performed to evaluate the effect of dexamethasone on the viability of CTLs from Cas9 control and NR3C1 KO groups. CTLs from both groups were treated with 200 µM dexamethasone (Sigma) for 72 hours. Cells were then collected, washed with annexin V buffer, and stained with annexin V (V500; BD Biosciences) and live/dead viability dye (efluor 660; Invitrogen) in addition to CD3 APC Cy7 (Biolegend, Clone HIT3A), CD4 APC (E Biosciences, Clone SK3), and CD8 PerCP Cy5.5 (Biolegend, Clone SK1). The proportion of apoptotic (positive for annexin V) and dead CTLs (positive for live/dead stain) was determined by flow cytometry.

Structure (SMILES): C[C@@H]1C[C@H]2[C@@H]3CCC4=CC(=O)C=C[C@]4(C)[C@@]3(F)[C@@H](O)C[C@]2(C)[C@@]1(O)C(=O)CO [Dex, dexamethasone]
- viability of control Cas9 COVID-19 CTLs: absence of viable cells
